Source: ChEMBL document CHEMBL1158539, “Synthesis and biological activity of 2H-quinolizin-2-one based p38alpha MAP kinase inhibitors” (Bioorg Med Chem Lett, 2010)
Values belong to the compound of their own block, whether it stands above or below them. The source made the active and inactive calls. No cut-off for these calls is given here.

Tests used:
THP-1 = experiment: cells; settings: Homo sapiens, THP-1, 4 h
Description: Inhibition of LPS-induced TNFalpha production in human THP1 cells after 4 hrs by ELISA

[1] = biological target: T1, Nuclear receptor subfamily 1 group I member 2 (Homo sapiens, UniProt O75469); experiment: Activation of PXR
T1 sequence (O75469 whole entry): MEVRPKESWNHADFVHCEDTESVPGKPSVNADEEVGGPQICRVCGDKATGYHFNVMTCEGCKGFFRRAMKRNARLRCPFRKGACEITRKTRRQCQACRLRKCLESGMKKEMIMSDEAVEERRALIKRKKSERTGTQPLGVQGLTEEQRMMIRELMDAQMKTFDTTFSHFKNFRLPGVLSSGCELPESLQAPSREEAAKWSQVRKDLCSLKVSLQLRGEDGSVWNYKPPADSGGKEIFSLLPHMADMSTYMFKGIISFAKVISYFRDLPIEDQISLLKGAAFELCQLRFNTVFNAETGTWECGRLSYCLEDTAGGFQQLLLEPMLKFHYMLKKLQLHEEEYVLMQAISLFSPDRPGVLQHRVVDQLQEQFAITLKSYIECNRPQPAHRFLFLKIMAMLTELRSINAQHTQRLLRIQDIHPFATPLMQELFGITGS

Blood [2] = system: Blood
Description: (§1) Inhibition of LPS-induced TNFalpha production in human whole blood

[3] = biological target: Mitogen-activated protein kinase 14 (Mus musculus, UniProt P47811)
Description: Inhibition of mouse p38alpha after 3 hrs by SPA method

[4] = Lipophilicity, log D of the compound; format: physicochemical; settings: octanol/water
[5] = Half life in dog; format: ADME, organism-based, Canis lupus familiaris; settings: in vivo
[6] = Half life in monkey; format: ADME, organism-based, Macaca mulatta; settings: rhesus monkey, in vivo
Blood [7] = experiment: tissue or blood; settings: Homo sapiens
Description: as §1

[8] = Displacement of labeled diltiazem from calcium channel in guinea-pig hind limb skeletal muscle homogenates
[9] = biological target: Voltage-gated inwardly rectifying potassium channel KCNH2 (Homo sapiens, UniProt Q12809)
Description: Displacement of labeled MK-499 from human ERG in HEK293 cells

[10] = Half life in rat at 1 mg/kg, iv and 2 mg/kg, po; format: ADME, organism-based; settings: in vivo
[11] = Clearance in monkey at 0.25 mg/kg, iv and 2 mg/kg, po; format: ADME, organism-based, Macaca mulatta; settings: rhesus monkey, in vivo
Rattus norvegicus [12] = experiment: Antiarthritic activity in rat assessed as reduction of LPS-induced TNFalpha level at 3 mg/kg after 24 hrs; format: functional, organism-based; set-up: dose 3 mg/kg
Rattus norvegicus [13] = experiment: Antiarthritic activity in rat assessed as reduction of LPS-induced TNFalpha level at 3 mg/kg after 4 hrs; format: functional; set-up: scale not given: the % may be the effect or the level left
[14] = Oral bioavailability in monkey at 2 mg/kg; format: ADME, organism-based, Macaca mulatta; settings: rhesus monkey, in vivo
[15] = AUC in monkey at 0.25 mg/kg, iv and 2 mg/kg, po; format: ADME, organism-based, Macaca mulatta; settings: rhesus monkey, plasma
[16] = Oral bioavailability in dog at 2 mg/kg; format: ADME, organism-based, Canis lupus familiaris; settings: in vivo
[17] = Half life in dog at 0.25 mg/kg, iv and 2 mg/kg, po; format: ADME, organism-based, Canis lupus familiaris; settings: in vivo
Rattus norvegicus [18] = experiment: Antiarthritic activity in rat assessed as reduction of LPS-induced TNFalpha level at 1 mg/kg after 24 hrs; format: functional, organism-based; set-up: dose 1 mg/kg
[19] = Half life in monkey at 0.25 mg/kg, iv and 2 mg/kg, po; format: ADME, organism-based, Macaca mulatta; settings: rhesus monkey, in vivo
[20] = AUC in dog at 0.25 mg/kg, iv and 2 mg/kg, po; format: ADME, organism-based, Canis lupus familiaris; settings: plasma
[21] = AUC in rat at 1 mg/kg, iv and 2 mg/kg, po; format: ADME, organism-based; settings: plasma
Rattus norvegicus [22] = experiment: Antiarthritic activity in rat assessed as reduction of LPS-induced TNFalpha level at 10 mg/kg after 24 hrs; format: functional, organism-based; set-up: dose 10 mg/kg
Rattus norvegicus [23] = experiment: Antiarthritic activity in rat assessed as reduction of LPS-induced TNFalpha level at 0.03 mg/kg after 4 hrs; format: functional; set-up: scale not given: the % may be the effect or the level left
Rattus norvegicus [24] = experiment: Antiarthritic activity in rat assessed as reduction of LPS-induced TNFalpha level at 1 mg/kg after 4 hrs; format: functional; set-up: scale not given: the % may be the effect or the level left
Rattus norvegicus [25] = experiment: Antiarthritic activity in rat assessed as reduction of LPS-induced TNFalpha level at 30 mg/kg after 24 hrs; format: functional, organism-based; set-up: dose 30 mg/kg
[26] = Oral bioavailability in rat at 2 mg/kg; format: ADME, organism-based; settings: in vivo
[27] = Clearance in rat at 1 mg/kg, iv and 2 mg/kg, po; format: ADME, organism-based; settings: in vivo
[28] = Clearance in dog at 0.25 mg/kg, iv and 2 mg/kg, po; format: ADME, organism-based, Canis lupus familiaris; settings: in vivo

Chain of Mitogen-activated protein kinase 14 (P47811 whole entry): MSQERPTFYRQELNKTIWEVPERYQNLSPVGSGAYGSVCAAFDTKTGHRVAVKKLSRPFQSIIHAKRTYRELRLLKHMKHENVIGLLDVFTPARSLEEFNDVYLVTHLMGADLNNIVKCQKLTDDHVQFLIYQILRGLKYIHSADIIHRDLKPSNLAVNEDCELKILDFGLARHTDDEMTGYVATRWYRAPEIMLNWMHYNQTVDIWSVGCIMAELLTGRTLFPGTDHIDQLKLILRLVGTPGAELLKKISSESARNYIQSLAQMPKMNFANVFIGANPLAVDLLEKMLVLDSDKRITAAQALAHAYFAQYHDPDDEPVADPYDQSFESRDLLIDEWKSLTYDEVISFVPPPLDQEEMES
Chain of Voltage-gated inwardly rectifying potassium channel KCNH2 (Q12809 whole entry): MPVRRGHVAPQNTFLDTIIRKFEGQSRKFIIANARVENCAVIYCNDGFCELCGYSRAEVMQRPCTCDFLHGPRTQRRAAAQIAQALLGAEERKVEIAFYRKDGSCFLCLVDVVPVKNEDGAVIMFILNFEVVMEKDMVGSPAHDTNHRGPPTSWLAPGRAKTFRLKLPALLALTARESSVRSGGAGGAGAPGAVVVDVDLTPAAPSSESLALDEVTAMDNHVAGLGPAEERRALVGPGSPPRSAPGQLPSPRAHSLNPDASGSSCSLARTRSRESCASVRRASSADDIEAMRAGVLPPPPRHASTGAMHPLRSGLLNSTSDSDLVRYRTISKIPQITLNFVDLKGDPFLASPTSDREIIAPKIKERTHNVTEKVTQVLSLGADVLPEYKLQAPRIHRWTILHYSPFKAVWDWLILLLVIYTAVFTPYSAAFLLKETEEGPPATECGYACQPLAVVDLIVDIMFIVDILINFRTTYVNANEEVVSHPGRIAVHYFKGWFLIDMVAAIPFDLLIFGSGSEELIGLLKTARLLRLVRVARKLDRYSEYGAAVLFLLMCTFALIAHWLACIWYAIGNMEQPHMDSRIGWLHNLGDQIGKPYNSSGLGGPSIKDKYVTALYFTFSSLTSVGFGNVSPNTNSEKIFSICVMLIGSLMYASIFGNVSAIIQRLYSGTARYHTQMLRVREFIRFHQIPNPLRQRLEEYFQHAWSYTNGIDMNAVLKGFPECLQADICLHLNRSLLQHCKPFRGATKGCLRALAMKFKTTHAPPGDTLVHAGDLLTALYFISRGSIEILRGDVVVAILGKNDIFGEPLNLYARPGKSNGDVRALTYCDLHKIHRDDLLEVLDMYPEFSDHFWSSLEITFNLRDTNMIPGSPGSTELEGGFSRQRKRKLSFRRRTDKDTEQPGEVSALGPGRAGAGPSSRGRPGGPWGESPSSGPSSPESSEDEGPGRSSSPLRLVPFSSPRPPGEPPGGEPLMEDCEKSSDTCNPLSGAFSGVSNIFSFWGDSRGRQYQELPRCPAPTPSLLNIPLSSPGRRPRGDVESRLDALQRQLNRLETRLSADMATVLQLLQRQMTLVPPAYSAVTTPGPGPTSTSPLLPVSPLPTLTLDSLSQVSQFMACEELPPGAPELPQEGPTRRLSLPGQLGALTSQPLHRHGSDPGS

SMILES: O=c1ccn2c(-c3ccc(F)cc3F)cccc2c1-c1c(F)cccc1F
logD [4]: 2.5 | half-life [5]: 20 h | half-life [6]: > 100 h

SMILES: NC(=O)c1cc(F)c(-c2c(=O)ccn3c(-c4ccc(F)cc4F)cccc23)c(F)c1
IC50 (Blood [7]): 980 nM | IC50 (THP-1): 180 nM | EC50 [1]: > 30000 nM | IC50 [3]: 20 nM

SMILES: O=C1NCc2c(-c3ccc(F)cc3F)cc(N3CCNCC3)cc2N1c1c(Cl)cccc1Cl
logD [4]: 4.2

SMILES: Cc1nnc(-c2ccc(F)c(-c3c(=O)ccn4c(-c5ccc(F)cc5F)cccc34)c2)o1
half-life [10]: 1.4 h | clearance [11]: 0.9 mL/min/kg | Activity (Rattus norvegicus [12]): Active | Activity (Rattus norvegicus [13]): >90% | bioavailability [14]: 55% | AUC [15]: 23.9 µM·h | bioavailability [16]: 66% | half-life [17]: 12 h | Activity (Rattus norvegicus [18]): Active | half-life [19]: 9.5 h | AUC [20]: 58.6 µM·h | AUC [21]: 21.7 µM·h | Activity (Rattus norvegicus [22]): Active | Activity (Rattus norvegicus [23]): 50% | Activity (Rattus norvegicus [24]): >90% | Activity (Rattus norvegicus [25]): Active | bioavailability [26]: 68% | clearance [27]: 2.4 mL/min/kg | clearance [28]: 0.88 mL/min/kg

SMILES: O=c1ccn2c(-c3ccc(F)cc3F)cccc2c1-c1cc(-c2nnco2)ccc1F
IC50 (Blood [7]): 45.4 nM | IC50 (THP-1): 25.4 nM | half-life [10]: 1.8 h | clearance [11]: 3.6 mL/min/kg | bioavailability [14]: 47% | IC50 [8]: > 30000 nM | AUC [15]: 5.1 µM·h | bioavailability [16]: 45% | half-life [17]: 30.4 h | half-life [19]: 5.9 h | AUC [20]: 49.3 µM·h | AUC [21]: 25.6 µM·h | Ki [9]: > 20000 nM | bioavailability [26]: 100% | clearance [27]: 3.1 mL/min/kg | IC50 [3]: 13 nM | clearance [28]: 0.49 mL/min/kg

SMILES: Cc1noc(-c2cc(F)c(-c3c(=O)ccn4c(-c5ccc(F)cc5F)cccc34)c(F)c2)n1
IC50 (Blood [7]): 690 nM | IC50 (THP-1): 430 nM | EC50 [1]: > 30000 nM | IC50 [3]: 8.8 nM

More lines, main results first:

IC50 (THP-1): 6490 nM | EC50 [1]: > 30000 nM | IC50 (Blood [2]): Not Active | IC50 [3]: 1.5 nM
SMILES: COC(=O)c1cc(F)c(-c2c(=O)ccn3c(-c4ccc(F)cc4F)cccc23)c(F)c1

IC50 (Blood [7]): 775 nM | IC50 (THP-1): 265 nM | EC50 [1]: > 30000 nM | IC50 [3]: 5.3 nM
SMILES: O=c1ccn2c(-c3ccc(F)cc3F)cccc2c1-c1c(F)cc(-c2nnco2)cc1F

IC50 (Blood [7]): 1580 nM | IC50 (THP-1): 270 nM | EC50 [1]: > 30000 nM | IC50 [3]: 6.8 nM
SMILES: Nc1nnc(-c2cc(F)c(-c3c(=O)ccn4c(-c5ccc(F)cc5F)cccc34)c(F)c2)o1

IC50 (THP-1): 6490 nM | EC50 [1]: > 30000 nM | IC50 (Blood [2]): Not Active | IC50 [3]: 1.5 nM
SMILES: N#Cc1cc(F)c(-c2c(=O)ccn3c(-c4ccc(F)cc4F)cccc23)c(F)c1

IC50 [8]: 4600 nM | logD [4]: 2.7 | IC50 [3]: 0.6 nM
SMILES: Nc1cc2c(ccc(=O)n2-c2c(F)cccc2F)c(-c2ccc(F)cc2F)n1
Ki [9]: 5100 nM
